Reference: patent publication US8236779B2, “Antiviral nucleosides” (Roche Palo Alto LLC, priority 2010, dated 2012)

Legend:
[1] = target: T1, HCV polymerase (NS5B570n-Con1) (Hepatitis C virus genotype 1b, UniProt Q9WMX2); assay: HCV NS5B RNA polymerase activity; format: biochemical, HCV Con1 strain
T1 construct: a 21 amino acid C-terminal deletion of full-length HCV polymerase derived from HCV Con1 strain; made in house; host or cells: E. coli BL21(DE3) pLysS, plasmid pET17b
Description: The enzymatic activity of HCV polymerase (NS5B570n-Con1) was measured as the incorporation of radiolabeled nucleotide monophosphates into acid insoluble RNA products. Unincorporated radiolabeled substrate was removed by filtration and scintillant was added to the washed and dried filter plate containing radiolabeled RNA product. The amount of RNA product generated by NS5B570n-Con1 at the end of the reaction was directly proportional to the amount of light emitted by the scintillant.
The HCV polymerase used in the enzymatic activity assay is a 21 amino acid C-terminal deletion of full-length HCV polymerase derived from HCV Con1 strain, genotype 1b (GenBank accession number AJ242654) (NS5B570n-Con1). The NS5B570n-Cont was sub-cloned downstream to the T7 promoter of the plasmid expression construct pET17b and transformed into E. coli strain BL21(DE3) pLysS for protein expression. A single colony was used to start an innoculum for a 10 L culture in LB media supplemented with 100 μg/mL ampicillin at 37° C. […]
The amount of light emitted from the scintillant was converted to counts per minute (CPM) on a Topcount® plate reader (Perkin-Elmer, Energy Range: Low, Efficiency Mode: Normal, Count Time: 1 min, Background Subtract: none, Cross talk reduction: Off).
Data was analyzed in Excel® (Microsoft®) and ActivityBase® (Idbs®). […] All data was expressed as a percentage of the positive control. […]

HCV [2] = conditions: monotherapy; cited from earlier work
HCV [3] = conditions: cited from earlier work
[4] = test system: primary human hepatocytes; assay: Uptake and phosphorylation in primary human hepatocytes; format: in vitro ADME
Description: The analysis of uptake and phosphorylation of the nucleoside analog 4AU in primary human hepatocytes was performed as previously published (Ma, H. et al. J. Biol. Chem. 2007, 282:29812-29820). Fresh human hepatocytes were plated and incubated with ^3H-labeled 4AU for different time spans. At the time of cell harvest the cell culture medium was aspirated, and the cells were washed once with cold phosphate-buffered saline. The cells were scraped into 1 mL of pre-chilled 60% (v/v) methanol containing 10 mM EDTA and extracted in methanol for 24 h at −20° C. The extracted samples were then centrifuged at 10,000×g for 15 min to remove cell debris. The supernatant was transferred to new tubes and evaporated in a speed vacuum at room temperature. The dried pellets of cell extracts were dissolved in H2O. Before HPLC analysis, cell extract samples were spiked with unlabeled reference standards 4AU and 4AU-mono-, di- and triphosphate derivatives.
The phosphorylation derivatives of 4AU were separated by ion exchange HPLC with a Whatman Partisil 10 SAX (4.6×250 mm) column coupled to a radiometric detector (β-RAM, IN/US Systems, Inc.). The mobile phase gradient changed linearly from 99% buffer A (H2O) and 1% buffer B (0.5 M KH2PO4+0.8 M KCl) to 100% buffer B between 4 and 16 minutes. 100% buffer B ran from 16 minutes to 26 minutes and changed back to 100% A in 1 minute. Buffer A ran until 32 minutes. […]

[5] = test system: human hepatoma Huh7 cells; assay: Phosphorylation in Huh7 replicon cells; format: in vitro ADME
Text: (FIG. 2) Since the cell specific phosphorylation takes place in the target tissue for HCV replication, there is the potential that 4′-AU will be selectively phosphorylated in the target tissue vis-à-vis other tissues thereby minimizing off target toxicity.

[6] = test system: HCV replicon (human hepatoma Huh7 cells); conditions: cited from earlier work

With [N-]=[N+]=N[C@]1(COP(=O)(O)OP(=O)(O)OP(=O)(O)O)O[C@@H](n2ccc(=O)[nH]c2=O)[C@H](O)[C@@H]1O [4′-AU triphosphate, 4-azidouridine triphosphate] the IC50 [1] was 0.46 ± 0.088 µM.
Compound [N-]=[N+]=N[C@]1(COP(=O)(O)OP(=O)(O)OP(=O)(O)O)O[C@@H](n2ccc(N)nc2=O)[C@H](O)[C@@H]1O [4′-AC-triphosphate, 4′-azido-cytidine triphosphate] has an IC50 [1] of 29 ± 0.13 µM.
In the case of NC(=O)c1ncn([C@@H]2O[C@H](CO)[C@@H](O)[C@H]2O)n1 [ribavirin, 1-((2R,3R,4S,5R)-3,4-Dihydroxy-5-hydroxymethyl-tetrahydro-furan-2-yl)-1H-[1,2,4]triazole-3-carboxylic acid amide], the “effect on serum levels of HCV-RNA” value (HCV [2]) is given as “does not lower serum levels of HCV-RNA” and the “patients with serum amino transferase levels reduced to normal” value (HCV [2]) is given as 40%.
Compound CCC(=O)O[C@H]1[C@H](n2ccc(=O)[nH]c2=O)O[C@@](CO)(N=[N+]=[N-])[C@H]1OC(=O)CC [I-1, Propionic acid (2R,3R,4S,5R)-5-azido-2-(2,4-dioxo-3,4-dihydro-2H-pyrimidin-1-yl)-5-hydroxymethyl-4-propionyloxy-tetrahydro-furan-3-yl ester] has a melting point of 118 to 120 °C.
For CC(=O)OC(O)[C@@]1(N=[N+]=[N-])O[C@@H](n2ccc(=O)[nH]c2=O)[C@@](O)(OC(C)=O)[C@@]1(O)OC(C)=O (some centres unmarked), the melting point was 158 °C.
For [N-]=[N+]=N[C@]1(CO)O[C@@H](n2ccc(N)nc2=O)[C@H](O)[C@@H]1O [4′-AC, 4′-azido-cytidine], the “inhibition of viral replication” value (HCV [3]) is given as “potent inhibitor of viral replication”.
With [N-]=[N+]=N[C@]1(CO)O[C@@H](n2ccc(=O)[nH]c2=O)[C@H](O)[C@@H]1O [4′-AU, 4′-azido-uridine] the “efficiency of phosphorylation relative to 4′-AC” value ([4]; 4′-AU vs 4′-AC, human hepatocytes) was “approximately 10 fold”, the “phosphorylation in primary human hepatocytes” value ([4]; primary human hepatocytes) was “phosphorylation does occur efficiently” and the “phosphorylation in Huh7 cells used in the replicon assay” value [5] was “lack of phosphorylation”. For the same compound, the “activity in the replicon assay” value [6] was “inactive”.
